Entries after “also recorded” stand apart in the source; their conditions may differ. One block for each sequence: values may come before it.
What was measured:
QCM VOC binding, octanal = conditions: wet N2 gas stream
Description: (§1) VOC binding validation by QCM utilized chimeric molecular constructs tethered to a substrate in a VOC-doped gas stream. Gold QCM substrates (Qsense, Phoenix, AZ, USA) were coated with 10 nm thick carbon film by evaporation (SPI, West Chester, PA, USA). 10 μL of 1 μM aqueous peptide was deposited and incubated for 1 hour at room temperature, and then the sample was dried in a nitrogen gas stream. A KSV model Z500 QCM (Qsense, Phoenix, AZ, USA) was used to measure VOC binding to bare carbon (control), and peptide-coated substrates. Humidified nitrogen was measured as the baseline, then VOC was introduced by bubbling nitrogen through the VOC/deionized water mixture. The difference in resonant frequency between wet nitrogen and VOC mixture was reported, in which lower frequency indicated an increase in mass on the substrate due to VOC molecules binding to the surface.
(§2) Each of the six synthesized peptides was then tested against eight VOCs. The VOCs were chosen to include the targeted VOCs for all synthesized chimeric molecular constructs, plus ethanol as a common non-target. […] VOC adsorption caused damping of the QCM sensor—therefore, a higher affinity surface would produce a greater reduction in resonant frequency upon exposure to the gas stream. The concentration of the target VOC for each peptide was 20 μM, 10× lower than non-targets at 200 μM.

[1] = Peptide-sensitized CNT-FET sensor response to ethyl butyrate; conditions: gate voltage −1 V
Description: Sensors were placed in a box chamber that allowed gas flow into and out of the enclosure while allowing micromanipulator probes to be positioned on the sensor chip contact pads. Gas flow impinged directly above the sensor chip with a continuous flow rate of 50-60 SCCM as controlled by a flowmeter (Matheson, model FM-1050, Montgomeryville, PA, USA).
After placing the sensor chip into the gas chamber, a nitrogen purge of 2-3 minutes at 4 to 5 PSI in the gas line was performed in order to flush out ambient air trapped within the box enclosure. Transfer curve measurements were performed to determine sensor characteristics. The chip was then equilibrated in humidified N2 (“wet N2”) for 30-60 min by flowing in nitrogen gas that has passed through a gas bubbler filled with water. Sensor measurements were taken at this point to establish sensor baseline signal.
For peptide sensitization of the CNT sensing channel, the chip was removed from the gas chamber and dropcasted with 1.5 μL 100 μM peptide diluted in di-H2O. Peptide solution was pipetted directly onto the CNT sensing regions of the multiplexed chip and incubated for 60 minutes in a humidified environment to prevent evaporation. Devices were then spin dried by centrifugal force at 2,000 g. Sensor measurements were taken again after replacing the chip back into the gas chamber, purging with N2, and equilibrating in wet N2 for 30-60 min. Finally, the peptide-functionalized chip was exposed to humidified ethyl butyrate for 60-90 min before sensor measurements were taken.
Transfer curves were generated for each of the following experimental conditions: 1) Bare CNT sensors (i.e., non-functionalized) under non-humidified N2 gas exposure; 2) non-functionalized sensors under humidified N2 gas exposure; 3) peptide-functionalized sensors under humidified N2 gas exposure; and 4) peptide-functionalized sensors exposed to ethyl butyrate in humidified N2 carrier gas. Signal response was based on normalized source-drain current values obtained from the reverse sweep of the transfer curve at a gate potential of −1 V (Vg=−1 V), which was determined to be within the subthreshold voltage region for ethyl butyrate-exposed, peptide-functionalized sensors. […] Signal responses were normalized to their corresponding width-to-length CNT sensing channel dimensions. Mean signal response for each condition was calculated from a total of 9 to 13 technical replicates measured across two independent experiments (N=2).
Two VOC and C-binding peptides were used in order to functionalize CNT-FET devices and test their sensitivity to ethyl butyrate:MmedPep1-GrBP and BhorPep1-GrBP, which were predicted to bind to ethyl butyrate and a range of aldehydes and alkanes, respectively. […] However, the effect was reversed under ethyl butyrate exposure for CNT channels functionalized with MmedPep1-GrBP (FIG. 7B). Specifically, upon exposure to 378 mM ethyl butyrate solution (5% v/v in H2O), MmedPep1-GrBP-sensitized CNT-FET sensors measured 1.21±0.43 μA of current, compared to 0.20±0.9 μA for the aldehyde-sensitive BhorPep1-GrBP (p<0.001), as shown in FIG. 7C.

QCM VOC binding, nonanal = conditions: wet N2 gas stream
Description: as §1, §2

[2] = SPR adsorption of peptide onto carbon substrate; type: binding
Description: (§3) SPR (GE Healthcare, Biacore T200) was performed to validate specific adsorption of peptides onto a carbon substrate. Bare gold and carbon- and poly-L-lysine-functionalized substrates were used. Substrate fabrication used e-beam evaporation (CHA Industries, Solution Process Development System) of titanium (3-nm thick layer) then gold (47-nm thick layer) onto 1-cm^2 optical quality glass. A 20-nm thick carbon layer was sputtered (Kurt J. Lesker Company, Lab 18 Sputter System) onto the fabricated gold substrates at a rate of 10 Å per minute, and poly-L-lysine coatings were drop-cast incubated with 0.1% v/v poly-L-lysine for 30 minutes and rinsed with di-H2O, then air dried. A single-cycle kinetics curve was generated by sequential injection of MmedPep1-GBP peptide at 2-fold increasing concentrations up to 500 nM in buffer (100 mM KCl, 10 mM K+ phosphate). An injection flow rate of 30 μL/min and a temperature of 25° C. were used. Response values were plotted and fitted to a Langmuir isotherm curve by minimizing the sum of square differences between the dataset and the isotherm model.

[3] = SPR adsorption of peptide onto bare gold; type: binding; conditions: 500 nM peptide concentration
Description: as §3

[4] = SPR adsorption of peptide onto poly-L-lysine substrate; type: binding; conditions: 500 nM peptide concentration
Description: as §3

[5] = QCM VOC binding, ethyl butyrate; conditions: wet N2 gas stream
Description: as §1, §2

QCM VOC binding, ethanol = conditions: wet N2 gas stream
Description: as §1, §2

[6] = 378 mM ethyl butyrate solution (5% v/v in H2O), Vsd=−5 V

octanal affinity (QCM) (QCM VOC binding, octanal): notable
Sequence: GIVLLATYEKIISIYFIFFGGGYSSY [BhorPep1-GrBP, chimeric construct from BhorOBPm2; targets aldehydes and alkanes]
source-drain current upon ethyl butyrate exposure [1, 6]: 0.20±0.9 μA
source-drain current upon ethyl butyrate exposure ([1]; Vds=−3 V): 0.038±0.020 μA
CNT-FET signal response to ethyl butyrate exposure (in words) [1]: respond weakly

nonanal affinity (QCM) (QCM VOC binding, nonanal): notable
Sequence: SHFVGGGYSSY [HcunPep1-GrBP, chimeric construct from HcunPBP3; target nonanal]

Sequence: VGARNGGGYSSY [MmedPep1-GrBP, target ethyl butyrate]
SPR signal ([2]; 500 nM peptide concentration, carbon-coated gold surface): 158.4±44.1 RU
substrate preference of adsorption (carbon vs gold, poly-L-lysine) ([2]; SPR): specific preference for the carbon substrate; also recorded: specific absorption
SPR signal [3]: 18.4±1.7 RU
SPR signal [4]: 6.5±2.9 RU
source-drain current upon ethyl butyrate exposure [1, 6]: 1.21±0.43 μA
source-drain current upon ethyl butyrate exposure ([1]; Vds=−3 V): 0.542±0.721 μA
CNT-FET signal response to ethyl butyrate exposure (in words) [1]: robust signal response

ethyl butyrate binding preference (QCM) [5]: strongly selective
affinity for ethanol (QCM) (QCM VOC binding, ethanol): reduced affinity
Sequence: VGGGAGRGNGGGYSSY [MmedPep1s-GrBP, glycine spacer variant of MmedPep1-GrBP; target ethyl butyrate]

Reference: US20250327770A1, “Protein-Derived Peptide Multiplexes for Biomimetic Detection of VOC Profiles” (University of Washington, priority 2022, published 2025)
